Measured values published in publication PMC6450895, “A fungal substrate mimicking molecule suppresses plant immunity via an inter-kingdom conserved motif” (Nature Communications, 2019).
“Also recorded” adds a separate entry of the source.

What was measured:
[1] = test system: proteases of maize apoplastic fluid processing UmPit2; assay: Effect of protease inhibitors on processing of UmPit2 in maize apoplastic fluid; format: biochemical; details: apoplastic fluid preincubated with inhibitor 10 min; 0, 15, 30 min
Experimental: Fig. 5 PLCPs cleave UmPit2 in the apoplast. a Input used to perform inhibitory test of Pit2 stability. Heterologous expressed UmPit2 and maize AF at different time points during the experiment. b Addition of E-64 stabilizes Pit2 degradation. Four inhibitors for main classes of proteases: E-64 for cysteine proteases, DCI for serine hydrolases, EDTA for metalloproteases and Pepstatin A for aspartic proteases were preincubated with maize AF for 10 min. Pit2 degradation was analyzed over time (0, 15 and 30 min) using SyproRuby staining. c Inhibition of cysteine proteases stabilizes Pit2 in the apoplast. Maize AF was coincubated with a mix of inhibitors containing DCI [10 µM], EDTA [1 mM] and Pepstatin A [10 µM] (Inh. Mix) with or without E-64 [10 µM]. As a control the noninhibitor sample containing DMSO is shown. d Fractionation of SA-treated apoplastic fluid by anion-exchange chromatography. […] F-24 was preincubated with 10 µM E-64 or DMSO followed by addition of purified UmPit2. Samples were incubated for 0, 15 and 30 min and analyzed by gel electrophoresis using SyproRuby. f UmPit2 is processed at similar rates as an endogenous maize substrate. UmPit2 as well as the endogenous maize PLCP substrate Prozip11 were heterologous expressed in E-coli. 3.2 µM proteins were coincubated with F-24 pretreated with inhibitor mix (Inh. mix) in the presence or absence of E-64. Processing of Prozip11 and UmPit2 has been monitored over time. Samples were analyzed by gel electrophoresis and stained with SyproRuby for visualization. As a control purified proteins as well as F-24 were loaded on gel (right gel). DMSO dimethyl sulfoxide, DCI 3,4-dichloroisocoumarin
(§1) Approximately 41 µg/ml heterologous expressed UmPit2 and UhPit2 proteins (concentration calculated with the previously described semi-quantitative approach based on SyproRuby) were incubated with or without apoplastic fluids (ca. 200 µg/ml) over time. Reaction was stopped by adding 2× SDS-gel loading buffer) and samples were analyzed by gel electrophoresis and SyproRuby staining (Invitrogen, Paisley, UK). Inhibition of apoplastic fluids containing specific inhibitors was performed as described in the main text. E-64 and pepstatin A were diluted in DMSO at a desired concentration. DCI was diluted in dimethyl formamide. All compounds have been purchased by Sigma-Aldrich (Taufkirchen, Germany). Stability experiments using F-24 were performed using ca. 1.4 µg/µl of the fraction and 3.2 µM of heterologous expressed UmPit2 or […].

[2] = test system: apoplastic PLCPs of barley; assay: Apoplastic PLCP activity in SA-treated barley; format: in vivo; details: Supplementary Fig. 9
[3] = test system: F-24 (PLCP-enriched fraction of maize apoplastic fluid); assay: Stability/processing in PLCP-enriched fraction F-24 (SDS gel, SyproRuby); format: in vitro ADME; details: F-24 preincubated with 50 µM / 10 µM E-64
Experimental: as §1

[4] = test system: PLCPs of fractionated maize apoplastic fluid; assay: PLCP activity of anion-exchange fractions, substrate Z-Phe-Arg-AMC; format: biochemical
Experimental: Fig. 5 PLCPs cleave UmPit2 in the apoplast. a Input used to perform inhibitory test of Pit2 stability. Heterologous expressed UmPit2 and maize AF at different time points during the experiment. b Addition of E-64 stabilizes Pit2 degradation. Four inhibitors for main classes of proteases: E-64 for cysteine proteases, DCI for serine hydrolases, EDTA for metalloproteases and Pepstatin A for aspartic proteases were preincubated with maize AF for 10 min. Pit2 degradation was analyzed over time (0, 15 and 30 min) using SyproRuby staining. c Inhibition of cysteine proteases stabilizes Pit2 in the apoplast. […] Samples were incubated for 0, 15 and 30 min and analyzed by gel electrophoresis using SyproRuby. f UmPit2 is processed at similar rates as an endogenous maize substrate. […] Processing of Prozip11 and UmPit2 has been monitored over time. Samples were analyzed by gel electrophoresis and stained with SyproRuby for visualization. […]
Activity of PLCPs present in isolated apoplastic fluids was monitored using 10 µM final concentration of the fluorogenic substrate Z-Phe-Arg-7-amido-4-methylcoumarin (Sigma-Aldrich, Taufkirchen, Germany). AMC released (RFU) over time was monitored at 460 nm using a Tecan Infinite M200 PRO plate reader (Tecan Group Ltd., Männedorf, Switzerland). […] The inhibitor control was used to normalize all measurements and obtain a read-out for specific PLCP activity. […]

Compound: O=c1oc(Cl)c(Cl)c2ccccc12 [DCI, 3,4-dichloroisocoumarin]
- effect on processing of UmPit2 in maize apoplastic fluid (in words) [1]: Processing of UmPit2 was observed gradually

Compound: O=C(O)c1ccccc1O [SA, salicylic acid]
- induction of apoplastic PLCPs by SA (in words) [2]: not found in barley

Compound: CC(C)C[C@H](NC(=O)[C@H]1O[C@@H]1C(=O)O)C(=O)NCCCCN=C(N)N [E-64]
- effect on processing of UmPit2 in maize apoplastic fluid (in words) [1]: E-64 stabilizes UmPit2
- effect of E-64 on processing by F-24 (in words) [3]: stabilized in the fraction preincubated with E-64; also recorded: stabilization of Prozip1 and UmPit2
- PLCP activity of fractions with inhibitor (in words) [4]: did not show any activity

Compound: O=C(O)CN(CCN(CC(=O)O)CC(=O)O)CC(=O)O [EDTA]
- effect on processing of UmPit2 in maize apoplastic fluid (in words) [1]: Processing of UmPit2 was observed gradually

Compound: pepstatin-A
- effect on processing of UmPit2 in maize apoplastic fluid (in words) [1]: Processing of UmPit2 was observed gradually
